The values below are quoted from earlier work in US11992483B2, “Emulsions for local anesthetics” (Cali Pharmaceuticals, LLC, priority 2021, dated 2024).

What is called log P is a log measure of how a compound divides between an organic and an aqueous phase.

The conditions of the series: for log P: octanol/water.

The structures appear in SMILES notation. Where a name gives a salt, the structure may show the parent alone. Read-outs that look alike come from different tables or passages of the source.

With `CCCN1CCCC[C@H]1C(=O)Nc1c(C)cccc1C` [ropivacaine free base, ropivacaine], the solubility in water result is recorded as “insoluble in water”, the lipophilicity (log P) is listed as 2.9 and the “P (octanol:water partition coefficient)” value is listed as 794.

For `CCCN1CCCC[C@H]1C(=O)Nc1c(C)cccc1C` [ropivacaine hydrochloride], where the note is “hydrochloride”, the “log P” value is 1.1 and the “P (octanol:water partition coefficient)” value is given as 14.
